PubChem BioAssay AID2060602 (Molecular Pharmacology Branch, DTP, NCI, 2025)
Blank lines part the entries; values can stand above or below the compound they belong to.

Test system: 648629-189-R-J1-PDC complex spheroids viability
Assay: Anticancer human tumor 648629-189-R-J1-PDC patient-derived bladder carcinoma cell line growth inhibition [CLK]
Settings: for IC50: curve of first compound; for viability, T/C: stronger effect = lower value
How it was run: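 Patient-derived tumor cells grown as complex spheroids with HUVEC endothelial cells and mesenchymal stem cells, treated with drug combinations. Concentrations descend in half-log steps from near clinical Cmax, or from 10 microM if Cmax unknown.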

[1] = second compound 0.0316 µM, first compound 0.00949 µM
[2] = second compound 0.0316 µM, first compound 0.03 µM
[3] = second compound 0.0316 µM, first compound 0.0949 µM
[4] = second compound 0.0316 µM, first compound 0.3 µM
[5] = second compound 0.1 µM, first compound 0.00949 µM
[6] = second compound 0.1 µM, first compound 0.03 µM
[7] = second compound 0.1 µM, first compound 0.0949 µM
[8] = second compound 0.1 µM, first compound 0.3 µM
[9] = second compound 0.316 µM, first compound 0.00949 µM
[10] = second compound 0.316 µM, first compound 0.03 µM
[11] = second compound 0.316 µM, first compound 0.0949 µM
[12] = second compound 0.316 µM, first compound 0.3 µM
[13] = second compound 1 µM, first compound 0.00949 µM
[14] = second compound 1 µM, first compound 0.03 µM
[15] = second compound 1 µM, first compound 0.0949 µM
[16] = second compound 1 µM, first compound 0.3 µM
[17] = second compound 3.16 µM, first compound 0.00949 µM
[18] = second compound 3.16 µM, first compound 0.03 µM
[19] = second compound 3.16 µM, first compound 0.0949 µM
[20] = second compound 3.16 µM, first compound 0.3 µM
[21] = second compound 10 µM, first compound 0.00949 µM
[22] = second compound 10 µM, first compound 0.03 µM
[23] = second compound 10 µM, first compound 0.0949 µM
[24] = second compound 10 µM, first compound 0.3 µM
[25] = second compound 0.0316 µM, first compound 0.0316 µM
[26] = second compound 0.0316 µM, first compound 0.1 µM
[27] = second compound 0.0316 µM, first compound 0.316 µM
[28] = second compound 0.0316 µM, first compound 1 µM
[29] = second compound 0.0316 µM, first compound 3.16 µM
[30] = second compound 0.0316 µM, first compound 10 µM
[31] = second compound 0.1 µM, first compound 0.0316 µM
[32] = second compound 0.1 µM, first compound 0.1 µM
[33] = second compound 0.1 µM, first compound 0.316 µM
[34] = second compound 0.1 µM, first compound 1 µM
[35] = second compound 0.1 µM, first compound 3.16 µM
[36] = second compound 0.1 µM, first compound 10 µM
[37] = second compound 0.316 µM, first compound 0.0316 µM
[38] = second compound 0.316 µM, first compound 0.1 µM
[39] = second compound 0.316 µM, first compound 0.316 µM
[40] = second compound 0.316 µM, first compound 1 µM
[41] = second compound 0.316 µM, first compound 3.16 µM
[42] = second compound 0.316 µM, first compound 10 µM
[43] = second compound 1 µM, first compound 0.0316 µM
[44] = second compound 1 µM, first compound 0.1 µM
[45] = second compound 1 µM, first compound 0.316 µM
[46] = second compound 1 µM, first compound 1 µM
[47] = second compound 1 µM, first compound 3.16 µM
[48] = second compound 1 µM, first compound 10 µM
[49] = second compound 3.16 µM, first compound 0.0316 µM
[50] = second compound 3.16 µM, first compound 0.1 µM
[51] = second compound 3.16 µM, first compound 0.316 µM
[52] = second compound 3.16 µM, first compound 1 µM
[53] = second compound 3.16 µM, first compound 3.16 µM
[54] = second compound 3.16 µM, first compound 10 µM
[55] = second compound 10 µM, first compound 0.0316 µM
[56] = second compound 10 µM, first compound 0.1 µM
[57] = second compound 10 µM, first compound 0.316 µM
[58] = second compound 10 µM, first compound 1 µM
[59] = second compound 10 µM, first compound 3.16 µM
[60] = second compound 10 µM, first compound 10 µM
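Throughout, for viability, T/C: drug exposure lasted seven days before viability readout; 100% = DMSO vehicle control wells.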

IC50 (second compound 0.0316 µM): 3.04 nM | IC50 (second compound 0.1 µM): 2.21 nM | IC50 (second compound 0.316 µM): < 0.949 nM | IC50 (second compound 1 µM): < 0.949 nM | IC50 (second compound 3.16 µM): < 0.949 nM | IC50 (second compound 10 µM): < 0.949 nM
SMILES: CC(C)CC(NC(=O)C(Cc1ccccc1)NC(=O)c1cnccn1)B(O)O (stereo not drawn) + CNC(=O)c1ccc(Nc2nc(OC3CCCC3)c3c(-c4ccc5nc(C)oc5c4)c[nH]c3n2)c(OC)c1
viability, T/C (second compound 0.0316 µM, first compound 0.000949 µM): 105% | viability, T/C (second compound 0.0316 µM, first compound 0.003 µM): 50.5% | viability, T/C [1]: 1.99% | viability, T/C [2]: 0.26% | viability, T/C [3]: 0.18% | viability, T/C [4]: 1.59% | viability, T/C (second compound 0.1 µM, first compound 0.000949 µM): 91.4% | viability, T/C (second compound 0.1 µM, first compound 0.003 µM): 35% | viability, T/C [5]: 0.64% | viability, T/C [6]: 0.21% | viability, T/C [7]: 0.15% | viability, T/C [8]: 1.03% | viability, T/C (second compound 0.316 µM, first compound 0.000949 µM): 34.9% | viability, T/C (second compound 0.316 µM, first compound 0.003 µM): 35% | viability, T/C [9]: 0.45% | viability, T/C [10]: 0.28% | viability, T/C [11]: 0.76% | viability, T/C [12]: 0.16% | viability, T/C (second compound 1 µM, first compound 0.000949 µM): 23.6% | viability, T/C (second compound 1 µM, first compound 0.003 µM): 24.1% | viability, T/C [13]: 2.18% | viability, T/C [14]: 0.36% | viability, T/C [15]: 0.34% | viability, T/C [16]: 1.9% | viability, T/C (second compound 3.16 µM, first compound 0.000949 µM): 28.1% | viability, T/C (second compound 3.16 µM, first compound 0.003 µM): 9.77% | viability, T/C [17]: 3.72% | viability, T/C [18]: 0.62% | viability, T/C [19]: 1.49% | viability, T/C [20]: 0.23% | viability, T/C (second compound 10 µM, first compound 0.000949 µM): 24.2% | viability, T/C (second compound 10 µM, first compound 0.003 µM): 14.2% | viability, T/C [21]: 1.91% | viability, T/C [22]: 0.53% | viability, T/C [23]: 1.61% | viability, T/C [24]: 1.49%

IC50 (second compound 0.0316 µM): > 10000 nM | IC50 (second compound 0.1 µM): > 10000 nM | IC50 (second compound 0.316 µM): < 31.6 nM | IC50 (second compound 1 µM): < 31.6 nM | IC50 (second compound 3.16 µM): < 31.6 nM | IC50 (second compound 10 µM): < 31.6 nM
SMILES: CC1(C)CCC(CN2CCN(c3ccc(C(=O)NS(=O)(=O)c4ccc(NCC5CCOCC5)c([N+](=O)[O-])c4)c(Oc4cnc5[nH]ccc5c4)c3)CC2)=C(c2ccc(Cl)cc2)C1 + CNC(=O)c1ccc(Nc2nc(OC3CCCC3)c3c(-c4ccc5nc(C)oc5c4)c[nH]c3n2)c(OC)c1
viability, T/C [25]: 100% | viability, T/C [26]: 114% | viability, T/C [27]: 108% | viability, T/C [28]: 106% | viability, T/C [29]: 85.3% | viability, T/C [30]: 103% | viability, T/C [31]: 86.5% | viability, T/C [32]: 94% | viability, T/C [33]: 93.4% | viability, T/C [34]: 79.2% | viability, T/C [35]: 71% | viability, T/C [36]: 100% | viability, T/C [37]: 26.3% | viability, T/C [38]: 30.1% | viability, T/C [39]: 23.4% | viability, T/C [40]: 25.6% | viability, T/C [41]: 29.4% | viability, T/C [42]: 19.9% | viability, T/C [43]: 20.7% | viability, T/C [44]: 24.1% | viability, T/C [45]: 20.2% | viability, T/C [46]: 23.4% | viability, T/C [47]: 26.5% | viability, T/C [48]: 21.3% | viability, T/C [49]: 23.1% | viability, T/C [50]: 23.3% | viability, T/C [51]: 23.9% | viability, T/C [52]: 20.2% | viability, T/C [53]: 21.6% | viability, T/C [54]: 17.3% | viability, T/C [55]: 20.9% | viability, T/C [56]: 20.7% | viability, T/C [57]: 19.9% | viability, T/C [58]: 22% | viability, T/C [59]: 23.6% | viability, T/C [60]: 20.4%

IC50 (second compound 0.0316 µM): 2410 nM | IC50 (second compound 0.1 µM): 3430 nM | IC50 (second compound 0.316 µM): < 31.6 nM | IC50 (second compound 1 µM): < 31.6 nM | IC50 (second compound 3.16 µM): < 31.6 nM | IC50 (second compound 10 µM): < 31.6 nM
SMILES: CC1COCCN1c1cc(C2(S(C)(=N)=O)CC2)nc(-c2ccnc3[nH]ccc23)n1 (stereo not drawn) + CNC(=O)c1ccc(Nc2nc(OC3CCCC3)c3c(-c4ccc5nc(C)oc5c4)c[nH]c3n2)c(OC)c1
viability, T/C [25]: 112% | viability, T/C [26]: 115% | viability, T/C [27]: 98.5% | viability, T/C [28]: 83.4% | viability, T/C [29]: 38.6% | viability, T/C [30]: 19.3% | viability, T/C [31]: 90.2% | viability, T/C [32]: 96.3% | viability, T/C [33]: 92.1% | viability, T/C [34]: 74.2% | viability, T/C [35]: 53.5% | viability, T/C [36]: 21.3% | viability, T/C [37]: 28.9% | viability, T/C [38]: 34.6% | viability, T/C [39]: 34.6% | viability, T/C [40]: 32.4% | viability, T/C [41]: 22.4% | viability, T/C [42]: 15.3% | viability, T/C [43]: 20.5% | viability, T/C [44]: 25.6% | viability, T/C [45]: 19.7% | viability, T/C [46]: 19.2% | viability, T/C [47]: 18.9% | viability, T/C [48]: 16% | viability, T/C [49]: 16.4% | viability, T/C [50]: 21.8% | viability, T/C [51]: 22.3% | viability, T/C [52]: 23.1% | viability, T/C [53]: 21.7% | viability, T/C [54]: 13.9% | viability, T/C [55]: 18.6% | viability, T/C [56]: 19.7% | viability, T/C [57]: 20.8% | viability, T/C [58]: 20.1% | viability, T/C [59]: 21.9% | viability, T/C [60]: 12.4%

IC50 (second compound 0.0316 µM): 52.2 nM | IC50 (second compound 0.1 µM): 44.5 nM | IC50 (second compound 0.316 µM): < 9.49 nM | IC50 (second compound 1 µM): < 9.49 nM | IC50 (second compound 3.16 µM): < 9.49 nM | IC50 (second compound 10 µM): < 9.49 nM
SMILES: NC(=O)C(=Cn1cnc(-c2cc(C(F)(F)F)cc(C(F)(F)F)c2)n1)c1cncnc1 + CNC(=O)c1ccc(Nc2nc(OC3CCCC3)c3c(-c4ccc5nc(C)oc5c4)c[nH]c3n2)c(OC)c1
viability, T/C [1]: 99% | viability, T/C [2]: 83.4% | viability, T/C [3]: 13.9% | viability, T/C [4]: 5.54% | viability, T/C (second compound 0.0316 µM, first compound 0.949 µM): 2.71% | viability, T/C (second compound 0.0316 µM, first compound 3 µM): 2.7% | viability, T/C [5]: 94.1% | viability, T/C [6]: 68.2% | viability, T/C [7]: 14.8% | viability, T/C [8]: 4.73% | viability, T/C (second compound 0.1 µM, first compound 0.949 µM): 2.15% | viability, T/C (second compound 0.1 µM, first compound 3 µM): 2.48% | viability, T/C [9]: 22.4% | viability, T/C [10]: 17.4% | viability, T/C [11]: 7.71% | viability, T/C [12]: 2.5% | viability, T/C (second compound 0.316 µM, first compound 0.949 µM): 1.35% | viability, T/C (second compound 0.316 µM, first compound 3 µM): 2.05% | viability, T/C [13]: 18.1% | viability, T/C [14]: 11.5% | viability, T/C [15]: 4.85% | viability, T/C [16]: 1.29% | viability, T/C (second compound 1 µM, first compound 0.949 µM): 0.91% | viability, T/C (second compound 1 µM, first compound 3 µM): 0.42% | viability, T/C [17]: 14.7% | viability, T/C [18]: 11.7% | viability, T/C [19]: 5.56% | viability, T/C [20]: 1.15% | viability, T/C (second compound 3.16 µM, first compound 0.949 µM): 1.87% | viability, T/C (second compound 3.16 µM, first compound 3 µM): 1.75% | viability, T/C [21]: 15.4% | viability, T/C [22]: 8.85% | viability, T/C [23]: 5.59% | viability, T/C [24]: 1.56% | viability, T/C (second compound 10 µM, first compound 0.949 µM): 1.79% | viability, T/C (second compound 10 µM, first compound 3 µM): 0.33%
